Assay results reported in ChEMBL document CHEMBL1201862, “PubChem BioAssay data set” (2004).
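96-well plates; 48 h exposure; 5 concentrations. Endpoints by linear interpolation between flanking doses. Not reached: highest tested concentration assigned. At the GI50, growth is halved.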 Active and inactive are the calls of the source. Rule as the data show it: active = GI50 up to about 1.1 µM and inactive = higher.

Tests used:
Test in all cases: NCI anticancer screen, dose series, 48 h
U-251 = tested on: U-251
SK-OV-3 = tested on: SK-OV-3
RXF 393 = tested on: RXF 393
786-0 = tested on: 786-0
LOX IMVI = tested on: LOX IMVI
A498 = tested on: A498
Hs-578T = tested on: Hs-578T
M14 = tested on: M14
MDA-MB-231 = tested on: MDA-MB-231
SK-MEL-5 = tested on: SK-MEL-5
TK-10 = tested on: TK-10
SNB-75 = tested on: SNB-75
NCI-H23 = tested on: NCI-H23
SW-620 = tested on: SW-620
HCT-116 = tested on: HCT-116
CAKI-1 = tested on: CAKI-1
SK-MEL-2 = tested on: SK-MEL-2
OVCAR-8 = tested on: OVCAR-8
ACHN = tested on: ACHN
SF-539 = tested on: SF-539

SMILES | GI50 (U-251) | GI50 (SK-OV-3) | GI50 (RXF 393) | GI50 (786-0) | GI50 (LOX IMVI) | GI50 (A498) | GI50 (Hs-578T) | GI50 (M14) | GI50 (MDA-MB-231) | GI50 (SK-MEL-5) | GI50 (TK-10) | GI50 (SNB-75) | GI50 (NCI-H23) | GI50 (SW-620) | GI50 (HCT-116) | GI50 (CAKI-1) | GI50 (SK-MEL-2) | GI50 (OVCAR-8) | GI50 (ACHN) | GI50 (SF-539)
CC(CC(=O)O)(CC(=O)O)C(=O)O | > 100 µM (inactive) | > 100 µM (inactive) | > 100 µM (inactive) | > 100 µM (inactive) | > 100 µM (inactive) | > 100 µM (inactive) | > 100 µM (inactive) | > 100 µM (inactive) | > 100 µM (inactive) | > 100 µM (inactive) | > 100 µM (inactive) | > 100 µM (inactive) | > 100 µM (inactive) | > 100 µM (inactive) | > 100 µM (inactive) | > 100 µM (inactive) | > 100 µM (inactive) | > 100 µM (inactive) | > 100 µM (inactive) | > 100 µM (inactive)
CCCn1c(=O)c2ccccc2[n+]2c(-c3ccc([N+](=O)[O-])cc3)csc12 | 34.4 µM (inactive) | 36.9 µM (inactive) | 18.1 µM (inactive) | 26.2 µM (inactive) | 22.1 µM (inactive) | 25.2 µM (inactive) | 23.3 µM (inactive) | 35.6 µM (inactive) | 33.7 µM (inactive) | 18.6 µM (inactive) | > 10 µM (inactive) | 21.7 µM (inactive) | 31 µM (inactive) | 43.9 µM (inactive) | 23.8 µM (inactive) | 40.9 µM (inactive) | 35.7 µM (inactive) | 13.6 µM (inactive) | 35.9 µM (inactive) | 17.2 µM (inactive)
N#Cc1nn(C2OC(COC(=O)c3ccccc3)C(OC(=O)c3ccccc3)C2OC(=O)c2ccccc2)c2nc[nH]c(=O)c12 (stereo not given) | 62.5 µM (inactive) | 5.57 µM (inactive) | 36.4 µM (inactive) | 35.9 µM (inactive) | – | 11.4 µM (inactive) | 80.9 µM (inactive) | 46.1 µM (inactive) | 58.3 µM (inactive) | 25.6 µM (inactive) | > 100 µM (inactive) | 76 µM (inactive) | 24.4 µM (inactive) | 63.1 µM (inactive) | 28.8 µM (inactive) | 38.5 µM (inactive) | 85.5 µM (inactive) | 27.8 µM (inactive) | 44.3 µM (inactive) | 68.4 µM (inactive)
C=CCCCCCCCCCOC1C=CC(O)C(CO)O1 (stereo not given) | 28.6 µM (inactive) | 83.6 µM (inactive) | 95.9 µM (inactive) | 44.5 µM (inactive) | 31.6 µM (inactive) | 99.5 µM (inactive) | 46 µM (inactive) | 18.6 µM (inactive) | 75.5 µM (inactive) | 20.3 µM (inactive) | 36.7 µM (inactive) | 51.2 µM (inactive) | 28.2 µM (inactive) | 43.5 µM (inactive) | 46.3 µM (inactive) | 56 µM (inactive) | 35.7 µM (inactive) | 17.5 µM (inactive) | 46.5 µM (inactive) | 95.7 µM (inactive)
CC(=O)O[C@H]1[C@@H](N2CCN(C)CC2)C[C@H]2[C@@H]3CC=C4C[C@@H](N5CCCC5)CC[C@]4(C)[C@H]3CC[C@@]21C | 50 µM (inactive) | > 100 µM (inactive) | 22.2 µM (inactive) | 25.8 µM (inactive) | 17.4 µM (inactive) | > 100 µM (inactive) | > 100 µM (inactive) | 17.8 µM (inactive) | 63 µM (inactive) | 25.9 µM (inactive) | > 100 µM (inactive) | > 100 µM (inactive) | > 100 µM (inactive) | 44.9 µM (inactive) | 16.9 µM (inactive) | 49.4 µM (inactive) | > 100 µM (inactive) | 85.1 µM (inactive) | > 100 µM (inactive) | 15 µM (inactive)
COC(=O)C1=C(OC(=O)/C(=C/c2ccccc2)c2ccc(Cl)cc2Cl)C(C(=O)OC)[C@@]2(O)[C@@H](C(=O)OC)[C@H](C)C[C@@H]1[C@@H]2C(=O)OC (stereo not given in full) | > 100 µM (inactive) | > 100 µM (inactive) | > 100 µM (inactive) | > 100 µM (inactive) | > 100 µM (inactive) | > 100 µM (inactive) | > 100 µM (inactive) | > 100 µM (inactive) | > 100 µM (inactive) | 82.8 µM (inactive) | > 100 µM (inactive) | 75.9 µM (inactive) | > 100 µM (inactive) | > 100 µM (inactive) | > 100 µM (inactive) | > 100 µM (inactive) | > 100 µM (inactive) | > 100 µM (inactive) | 42 µM (inactive) | > 100 µM (inactive)
COC(=O)C(C(=O)C(=O)Nc1c(C)cccc1C(C)(C)C)c1nc2ccc(Cl)cc2nc1O (stereo not given) | > 100 µM (inactive) | > 100 µM (inactive) | > 100 µM (inactive) | > 100 µM (inactive) | > 100 µM (inactive) | > 100 µM (inactive) | > 100 µM (inactive) | > 100 µM (inactive) | > 100 µM (inactive) | > 100 µM (inactive) | > 100 µM (inactive) | > 100 µM (inactive) | > 100 µM (inactive) | > 100 µM (inactive) | > 100 µM (inactive) | > 100 µM (inactive) | > 100 µM (inactive) | > 100 µM (inactive) | > 100 µM (inactive) | > 100 µM (inactive)
CCOC(=O)C1C(=O)CC(O)(c2ccccc2)C(C(=O)OCC)C1c1ccc(OC)cc1 (stereo not given) | 16 µM (inactive) | 15.8 µM (inactive) | 13.6 µM (inactive) | 22.6 µM (inactive) | 18.7 µM (inactive) | 42.2 µM (inactive) | 0.695 µM (active) | 10.4 µM (inactive) | 22.2 µM (inactive) | 19.1 µM (inactive) | 65.5 µM (inactive) | 0.479 µM (active) | 31 µM (inactive) | 12.2 µM (inactive) | 4.94 µM (inactive) | 44.8 µM (inactive) | 20.1 µM (inactive) | 33.4 µM (inactive) | 43.4 µM (inactive) | 15.6 µM (inactive)
COc1cccc(C2c3cc4c(cc3OC(C)(O)C2C)OCO4)c1O (stereo not given) | 3.83 µM (inactive) | 3.57 µM (inactive) | 3.69 µM (inactive) | 4.44 µM (inactive) | 5.12 µM (inactive) | 3.24 µM (inactive) | 2.68 µM (inactive) | 3.48 µM (inactive) | 0.897 µM (active) | 2.84 µM (inactive) | 5.56 µM (inactive) | 5 µM (inactive) | 0.966 µM (active) | 3.25 µM (inactive) | 3.64 µM (inactive) | – | 9.89 µM (inactive) | 4.94 µM (inactive) | 7.06 µM (inactive) | 2.67 µM (inactive)
Cc1nc2ccccc2n1Cc1ccc(NC(=S)Nc2ccccc2)cc1 | 82.6 µM (inactive) | > 100 µM (inactive) | 60 µM (inactive) | > 100 µM (inactive) | 70.6 µM (inactive) | 28.7 µM (inactive) | > 100 µM (inactive) | 56.1 µM (inactive) | 36.4 µM (inactive) | 12.3 µM (inactive) | > 100 µM (inactive) | 63.8 µM (inactive) | 83.9 µM (inactive) | 45 µM (inactive) | 31.6 µM (inactive) | 77.4 µM (inactive) | 73.8 µM (inactive) | 60.1 µM (inactive) | 35.2 µM (inactive) | 23.8 µM (inactive)
O=C1c2c(O)ccc(O)c2C(=O)c2c(NCCNC(=O)C(O)C(O)C(O)C(O)CO)ccc(NCCNC(=O)C(O)C(O)C(O)C(O)CO)c21 (stereo not given) | 0.0109 µM (active) | < 0.0233 µM (active) | 0.221 µM (active) | < 0.01 µM (active) | 0.0134 µM (active) | 0.149 µM (active) | 0.213 µM (active) | < 0.0195 µM (active) | 0.0467 µM (active) | 0.016 µM (active) | 0.161 µM (active) | 0.0356 µM (active) | 0.0178 µM (active) | 0.0213 µM (active) | 0.0332 µM (active) | < 0.01 µM (active) | 1.08 µM (active) | < 0.0231 µM (active) | < 0.01 µM (active) | < 0.01 µM (active)
CC1=C(C(=O)NCCc2ccccc2)CC(C(=O)NCCc2ccccc2)=C(C)N1 | > 100 µM (inactive) | > 100 µM (inactive) | 35.8 µM (inactive) | 87.5 µM (inactive) | > 100 µM (inactive) | 33.2 µM (inactive) | 29.9 µM (inactive) | > 100 µM (inactive) | > 100 µM (inactive) | – | > 100 µM (inactive) | 14.3 µM (inactive) | > 100 µM (inactive) | > 100 µM (inactive) | 74.5 µM (inactive) | > 100 µM (inactive) | > 100 µM (inactive) | > 100 µM (inactive) | 55.3 µM (inactive) | > 100 µM (inactive)
COC(=O)[C@@H]1CN(C(=O)CCc2ccccc2)C(=O)N1C(=O)OCc1ccccc1 | > 100 µM (inactive) | > 100 µM (inactive) | > 100 µM (inactive) | > 100 µM (inactive) | > 100 µM (inactive) | > 100 µM (inactive) | 57.1 µM (inactive) | > 100 µM (inactive) | > 100 µM (inactive) | > 100 µM (inactive) | > 100 µM (inactive) | > 100 µM (inactive) | > 100 µM (inactive) | > 100 µM (inactive) | > 100 µM (inactive) | > 100 µM (inactive) | > 100 µM (inactive) | > 100 µM (inactive) | > 100 µM (inactive) | > 100 µM (inactive)
CC1(C)[C@@H](Cn2cnc3c(O)nc(N)nc32)CC[C@@]1(C)CO | > 100 µM (inactive) | > 100 µM (inactive) | > 100 µM (inactive) | > 100 µM (inactive) | > 100 µM (inactive) | > 100 µM (inactive) | > 100 µM (inactive) | > 100 µM (inactive) | > 100 µM (inactive) | > 100 µM (inactive) | > 100 µM (inactive) | > 100 µM (inactive) | – | > 100 µM (inactive) | > 100 µM (inactive) | > 100 µM (inactive) | > 100 µM (inactive) | – | > 100 µM (inactive) | > 100 µM (inactive)
